Our source for the target mRNA inhibition values is the OligoGym collection.

The series deals with HBV. The note with it: ASO.

Several values for one entry are separate records, joined by “and”; a condition that tells them apart may be missing. Identical values can stand only once. HELM strings list units from the 5' end as sugar, base in round brackets, then linkage (d deoxyribose, r ribose, m 2'-O-methyl, p phosphodiester). Methylation of C is not given here. [moe] = 2'-O-(2-methoxyethyl) (MOE); [cEt] = constrained ethyl (cEt); [sp] = phosphorothioate linkage

For the substance “RNA1{[moe](C)[sp].[moe](A)[sp].[moe](G)[sp].[moe](A)[sp].d(G)[sp].d(G)[sp].d(T)[sp].d(G)[sp].d(A)[sp].d(A)[sp].d(G)[sp].d(C)[sp].d(G)[sp].[moe](A)[sp].[moe](A)[sp].[moe](G)[sp].[moe](T)}$$$$V2.0”, for the setting “HepG2, 0.07 µM”, the target mRNA inhibition was 60% and 45%.
“RNA1{[moe](A)[sp].[moe](T)[sp].[moe](T)[sp].d(T)[sp].d(A)[sp].d(T)[sp].d(G)[sp].d(C)[sp].d(C)[sp].d(T)[sp].d(A)[sp].d(C)[sp].d(A)[sp].[moe](G)[sp].[moe](C)[sp].[moe](C)[sp].[moe](T)}$$$$V2.0” gave a target mRNA inhibition (HepG2, 0.0092593 µM) of 3%; a target mRNA inhibition (HepG2, 0.0277778 µM) of 11%; a target mRNA inhibition (HepG2, 0.0833333 µM) of 13%; a target mRNA inhibition (HepG2, 0.25 µM) of 41%.
In the case of “RNA1{[moe](A)[sp].[moe](C)[sp].[moe](T)[sp].[moe](G)[sp].d(G)[sp].d(A)[sp].d(G)[sp].d(C)[sp].d(C)[sp].d(A)[sp].d(C)[sp].d(C)[sp].d(A)[sp].[moe](G)[sp].[moe](C)[sp].[moe](A)}$$$$V2.0”, the target mRNA inhibition (HepG2, 0.07 µM) was 45% and 20%.
On the same count and under the same terms, the result for “RNA1{[moe](T)[sp].[moe](T)[sp].[moe](C)[sp].[moe](C)[sp].[moe](G)[sp].d(C)[sp].d(A)[sp].d(G)[sp].d(T)[sp].d(A)[sp].d(T)[sp].d(G)[sp].d(G)[sp].d(A)[sp].[moe](T)[sp].[moe](C)}$$$$V2.0” reads 59% and 58%.
As to “RNA1{[moe](A)[sp].[cEt](G)[sp].[cEt](G)[sp].d(T)[sp].d(G)[sp].d(A)[sp].d(A)[sp].d(G)[sp].d(C)[sp].d(G)[sp].d(A)[sp].d(A)[sp].d(G)[sp].[cEt](T)[sp].[cEt](G)[sp].[moe](C)}$$$$V2.0”, the target mRNA inhibition was 21% (HepG2, 0.009375 µM); 30% (HepG2, 0.01875 µM); 39% (HepG2, 0.0375 µM); 79% (HepG2, 0.07 µM); 61% (HepG2, 0.075 µM); 79% (HepG2, 0.15 µM). The target mRNA inhibition (HepG2, 0.3 µM) is 91%.
For the substance “RNA1{[moe](G)[sp].[moe](A)[sp].[moe](G)[sp].[moe](G)[sp].[moe](T)[sp].d(G)[sp].d(A)[sp].d(A)[sp].d(G)[sp].d(C)[sp].d(G)[sp].d(A)[sp].d(A)[sp].d(G)[sp].[moe](T)[sp].[moe](G)}$$$$V2.0”, the target mRNA inhibition (HepG2, 0.07 µM) is 46% and 39%.
Take “RNA1{[moe](C)[sp].[cEt](C)[sp].[cEt](A)[sp].d(C)[sp].d(A)[sp].d(T)[sp].d(C)[sp].d(A)[sp].d(T)[sp].d(C)[sp].d(C)[sp].d(A)[sp].d(T)[sp].[cEt](A)[sp].[cEt](T)[sp].[moe](A)}$$$$V2.0”: where the note is “HepG2, 0.07 µM”, the target mRNA inhibition is 60% and 50%.
The same measure, in the same setting: the figure for “RNA1{[moe](A)[sp].[moe](C)[sp].[moe](C)[sp].[moe](A)[sp].[moe](A)[sp].[moe](T)[sp].d(T)[sp].d(T)[sp].d(A)[sp].d(T)[sp].d(G)[sp].d(C)[sp].d(C)[sp].d(T)[sp].d(A)[sp].[moe](C)[sp].[moe](A)}$$$$V2.0” is 5% and 18%; for “RNA1{[moe](A)[sp].[moe](G)[sp].[moe](A)[sp].[moe](T)[sp].d(G)[sp].d(A)[sp].d(G)[sp].d(G)[sp].d(C)[sp].d(A)[sp].d(T)[sp].d(A)[sp].d(G)[sp].[moe](C)[sp].[moe](A)[sp].[moe](G)[sp].[moe](C)}$$$$V2.0” it is 45% and 40%.
The same measure, in the same setting: the figure for “RNA1{[moe](T)[sp].[moe](G)[sp].[moe](C)[sp].[moe](A)[sp].[moe](G)[sp].d(A)[sp].d(G)[sp].d(G)[sp].d(T)[sp].d(G)[sp].d(A)[sp].d(A)[sp].d(G)[sp].d(C)[sp].[moe](G)[sp].[moe](A)[sp].[moe](A)}$$$$V2.0” is 55% and 56%; for “RNA1{[moe](A)[sp].[moe](G)[sp].[moe](A)[sp].d(A)[sp].d(G)[sp].d(T)[sp].d(C)[sp].d(C)[sp].d(A)[sp].d(C)[sp].d(C)[sp].d(A)[sp].[moe](C)[sp].[moe](G)[sp].[moe](A)[sp].[moe](G)[sp].[moe](T)}$$$$V2.0” it is 41% and 44%; for “RNA1{[moe](G)[sp].[cEt](A)[sp].[cEt](G)[sp].d(G)[sp].d(C)[sp].d(A)[sp].d(T)[sp].d(A)[sp].d(G)[sp].d(C)[sp].d(A)[sp].d(G)[sp].d(C)[sp].[cEt](A)[sp].[cEt](G)[sp].[moe](G)}$$$$V2.0” it is 64% and 67%.
With “RNA1{[moe](A)[sp].[cEt](G)[sp].d(C)[sp].d(G)[sp].d(A)[sp].d(A)[sp].d(G)[sp].d(T)[sp].d(G)[sp].d(C)[sp].d(A)[sp].d(C)[sp].[cEt](A)[sp].[moe](C)[sp].[cEt](G)[sp].[moe](G)}$$$$V2.0”, the target mRNA inhibition by setting is: (HepG2, 0.0092593 µM) 24%; (HepG2, 0.0277778 µM) 62%; (HepG2, 0.07 µM) 86% and 88%; (HepG2, 0.0833333 µM) 84%; (HepG2, 0.25 µM) 91%.
“RNA1{[moe](A)[sp].[cEt](G)[sp].[cEt](T)[sp].d(T)[sp].d(C)[sp].d(C)[sp].d(G)[sp].d(C)[sp].d(A)[sp].d(G)[sp].d(T)[sp].d(A)[sp].d(T)[sp].[cEt](G)[sp].[cEt](G)[sp].[moe](A)}$$$$V2.0”: the target mRNA inhibition was found to be 12% (HepG2, 0.0092593 µM); 25% (HepG2, 0.0277778 µM); 73% (HepG2, 0.0833333 µM); 84% (HepG2, 0.25 µM).
In the case of “RNA1{[moe](C)[sp].[moe](A)[sp].[moe](C)[sp].d(T)[sp].d(A)[sp].d(G)[sp].d(T)[sp].d(A)[sp].d(A)[sp].d(A)[sp].d(C)[sp].d(T)[sp].[moe](G)[sp].[moe](A)[sp].[moe](G)[sp].[moe](C)[sp].[moe](C)}$$$$V2.0”, for the setting “HepG2, 0.07 µM”, the target mRNA inhibition was 54% and 37%.
Same read-out and setting: the figure for “RNA1{[moe](A)[sp].[moe](C)[sp].[moe](T)[sp].[moe](A)[sp].d(G)[sp].d(T)[sp].d(A)[sp].d(A)[sp].d(A)[sp].d(C)[sp].d(T)[sp].d(G)[sp].d(A)[sp].[moe](G)[sp].[moe](C)[sp].[moe](C)}$$$$V2.0” is 62% and 63%.
Turning to “RNA1{[moe](C)[sp].[moe](C)[sp].d(G)[sp].d(C)[sp].d(A)[sp].d(G)[sp].d(T)[sp].d(A)[sp].d(T)[sp].d(G)[sp].d(G)[sp].[moe](A)[sp].[moe](T)[sp].[moe](C)[sp].[moe](G)[sp].[moe](G)[sp].[moe](C)}$$$$V2.0”, the target mRNA inhibition (HepG2, 0.07 µM) was 86% and 80%.
On the same count and under the same terms, the figure for “RNA1{[moe](C)[sp].[moe](T)[sp].[moe](G)[sp].d(G)[sp].d(A)[sp].d(G)[sp].d(C)[sp].d(C)[sp].d(A)[sp].d(C)[sp].d(C)[sp].d(A)[sp].[moe](G)[sp].[moe](C)[sp].[moe](A)[sp].[moe](G)[sp].[moe](G)}$$$$V2.0” is 79% and 64%; for “RNA1{[moe](T)[sp].[cEt](A)[sp].[cEt](T)[sp].d(G)[sp].d(C)[sp].d(C)[sp].d(T)[sp].d(A)[sp].d(C)[sp].d(A)[sp].d(G)[sp].d(C)[sp].d(C)[sp].[cEt](T)[sp].[cEt](C)[sp].[moe](C)}$$$$V2.0” it is 55% and 36%; for “RNA1{[moe](G)[sp].[moe](T)[sp].d(G)[sp].d(A)[sp].d(A)[sp].d(G)[sp].d(C)[sp].d(G)[sp].d(A)[sp].d(A)[sp].d(G)[sp].[moe](T)[sp].[moe](G)[sp].[moe](C)[sp].[moe](A)[sp].[moe](C)[sp].[moe](A)}$$$$V2.0” it is 73% and 68%.
